According to patent US20260125382A1, “COMPOUNDS FOR INHIBITING OR DEGRADING CDK2 AND/OR CDK9 AND MEDICINAL USE THEREOF” (KOREA RESEARCH INSTITUTE OF CHEMICAL TECHNOLOGY, priority 2022, published 2026):

How the values were obtained:
[1] = molecular target: T1, CDK9 (Homo sapiens, UniProt P50750); test: CDK protein degradation activity (Western blotting), CDK9; type: cell-based; settings: MDA-MB-231 cells, 16 hours, Western blot
T1 construct: endogenous in cells; host or cells: MDA-MB-231
Summary of the method: (§1)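 MDA-MB-231 cells were treated with compound at final concentrations of 100 nM, 1 μM and 10 μM, or DMSO vehicle, for 16 h. Lysates were resolved by SDS-PAGE and immunoblotted for CDK2, CDK9 and tubulin, with band intensities quantified densitometrically.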

[2] = molecular target: T2, CDK2 (Homo sapiens, UniProt P24941); test: CDK protein degradation activity (Western blotting), CDK2; type: cell-based; settings: MDA-MB-231 cells, 16 hours, Western blot
T2 construct: endogenous in cells; host or cells: MDA-MB-231
Summary of the method: as §1

T1 sequence (P50750 whole entry): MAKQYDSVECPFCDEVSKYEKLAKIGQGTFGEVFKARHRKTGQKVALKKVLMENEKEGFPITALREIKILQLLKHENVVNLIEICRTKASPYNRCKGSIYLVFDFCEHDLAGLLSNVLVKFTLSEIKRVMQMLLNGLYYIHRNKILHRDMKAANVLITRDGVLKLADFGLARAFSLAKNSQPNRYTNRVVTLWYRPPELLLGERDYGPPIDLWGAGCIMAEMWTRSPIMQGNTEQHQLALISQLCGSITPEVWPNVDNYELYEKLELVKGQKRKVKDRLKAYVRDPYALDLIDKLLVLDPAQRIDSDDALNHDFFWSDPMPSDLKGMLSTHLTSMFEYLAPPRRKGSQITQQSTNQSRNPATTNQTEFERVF

Enzyme degradation CDK9 (% remaining) @ 0.1 μM [1] | Enzyme degradation CDK9 (% remaining) @ 1 μM [1] | Enzyme degradation CDK9 (% remaining) @ 10 μM [1] | Enzyme degradation CDK2 (% remaining) @ 0.1 μM [2] | Enzyme degradation CDK2 (% remaining) @ 1 μM [2] | Enzyme degradation CDK2 (% remaining) @ 10 μM [2] | SMILES
10% | 0% | 0% | 50% | 50% | 60% | O=C1CC[C@H](N2C(=O)c3ccc(N4CC(C(=O)N5CCC(CN6CCN(c7ccc(Nc8ncnc9c8ncn9C8CC(NC(=O)Cc9ccccc9)C8)cc7)CC6)CC5)C4)cc3C2=O)C(=O)N1 (stereo partly drawn) [Compound 329, N-((1s,3s)-3-(6-((4-(4-((1-(1-(2-(2,6-dioxopiperidin-3-yl)-1,3-dioxoisoindolin-5-yl)azetidin-3-carbonyl)piperidin-4-yl)methyl)piperazin-1-yl)phenyl)amino)-9H-purin-9-yl)cyclobutyl)-2-phenylacetamide]
10% | 0% | 0% | 30% | 10% | 0% | Cc1cccc(C(=O)NC2CC(n3cnc4c(NCCC5CCN(CC6CCN(C(=O)COc7cccc8c7C(=O)N([C@H]7CCC(=O)NC7=O)C8=O)CC6)CC5)ncnc43)C2)n1 (stereo partly drawn) [Compound 122, N-((1s,3s)-3-(6-((2-(1-((1-(2-((2-(2,6-dioxopiperidin-3-yl)-1,3-dioxoisoindolin-4-yl)oxy)acetyl)piperidin-4-yl)methyl)piperidin-4-yl)ethyl)amino)-9H-purin-9-yl)cyclobutyl)-6-methylpicolinamide]
90% | 70% | 30% | 100% | 70% | 70% | CC(=O)N[C@H]1C[C@@H](n2cnc3c(NCC4CCN(CC5CCN(C(=O)COc6ccc7c(c6)C(=O)N([C@H]6CCC(=O)NC6=O)C7=O)CC5)CC4)ncnc32)C1 [Compound 154, N-((1s,3s)-3-(6-(((1-((1-(2-((2-(2,6-dioxopiperidin-3-yl)-1,3-dioxoisoindolin-5-yl)oxy)acetyl)piperidin-4-yl)methyl)piperidin-4-yl)methyl)amino)-9H-purin-9-yl)cyclobutyl)acetamide]
30/30/30% | 30/30/30% | 30/30/30% | 50% | 50% | 40% | O=C1CC[C@H](N2C(=O)c3cccc(NCC(=O)N4CCC(CC(=O)N5CCN(c6ccc(Nc7ncnc8c7ncn8C7CC(NC(=O)Cc8ccccc8)C7)cc6)CC5)CC4)c3C2=O)C(=O)N1 (stereo partly drawn) [Compound 211, N-((1s,3s)-3-(6-((4-(4-(2-(1-((2-(2,6-dioxopiperidin-3-yl)-1,3-dioxoisoindolin-4-yl)glycyl)piperidin-4-yl)acetyl)piperazin-1-yl)phenyl)amino)-9H-purin-9-yl)cyclobutyl)-2-phenylacetamide]
0/0/0% | 0/0/0% | 0/0/0% | 40% | 40% | 50% | N#Cc1cccc(C(=O)NC2CC(n3cnc4c(Nc5ccc(N6CCN(CC7CCN(C(=O)C8CCN(c9cc%10c(cc9F)C(=O)N([C@H]9CCC(=O)NC9=O)C%10=O)CC8)CC7)CC6)cc5)ncnc43)C2)n1 (stereo partly drawn) [Compound 472, 6-cyano-N-((1s,3s)-3-(6-((4-(4-((1-(1-(2-(2,6-dioxopiperidin-3-yl)-6-fluoro-1,3-dioxoisoindolin-5-yl)piperidin-4-carbonyl)piperidin-4-yl)methyl)piperazin-1-yl)phenyl)amino)-9H-purin-9-yl)cyclobutyl)picolinamide]
0/0/0% | 0/0/0% | 0/0/0% | 30% | 20% | 40% | O=C1CC[C@H](N2C(=O)C=C(N3CCC(C(=O)N4CCC(CN5CCN(c6ccc(Nc7ncnc8c7ncn8[C@H]7C[C@@H](NC(=O)Cc8ccccc8)C7)cc6)CC5)CC4)CC3)C2=O)C(=O)N1 [Compound 189, N-((1s,3s)-3-(6-((4-(4-((1-(1-(1-(2,6-dioxopiperidin-3-yl)-2,5-dioxo-2,5-dihydro-1H-pyrrol-3-yl)piperidin-4-carbonyl)piperidin-4-yl)methyl)piperazin-1-yl)phenyl)amino)-9H-purin-9-yl)cyclobutyl)-2-phenylacetamide]
0/0/0% | 0/0/0% | 0/0/0% | 0/0/0% | 0/0/0% | 0/0/0% | O=C1CC[C@H](n2nnc3ccc(N4CCC(CN5CCN(c6ccc(Nc7ncnc8c7ncn8C7CC(NC(=O)Cc8ccccc8)C7)cc6)CC5)CC4)cc3c2=O)C(=O)N1 (stereo partly drawn) [Compound 307, N-((1s,3s)-3-(6-((4-(4-((1-(3-(2,6-dioxopiperidin-3-yl)-4-oxo-3,4-dihydrobenzo[d][1,2,3]triazin-6-yl)piperidin-4-yl)methyl)piperazin-1-yl)phenyl)amino)-9H-purin-9-yl)cyclobutyl)-2-phenylacetamide]
30% | 0% | 0% | 70% | 40% | 40% | O=C1CCC(N2C(=O)c3cc(F)c(N4CCC(C(=O)N5CCC(CN6CCC(CCNc7ncnc8c7ncn8[C@H]7C[C@@H](NC(=O)Cc8ccccc8)C7)CC6)CC5)CC4)cc3C2=O)C(=O)N1 (stereo partly drawn) [Compound 461, N-((1s,3s)-3-(6-((2-(1-((1-(1-(2-(2,6-dioxopiperidin-3-yl)-6-fluoro-1,3-dioxoisoindolin-5-yl)piperidin-4-carbonyl)piperidin-4-yl)methyl)piperidin-4-yl)ethyl)amino)-9H-purin-9-yl)cyclobutyl)-2-phenylacetamide]
50% | 30% | 10% | 0/0/0% | 0/0/0% | 0/0/0% | COc1ccc(C(=O)NC[C@H]2CC[C@H](CN3CCN(c4ccc(Nc5ncnc6c5ncn6[C@H]5C[C@@H](NC(=O)Cc6ccccc6)C5)cc4)CC3)CC2)cc1N1CCC(=O)NC1=O [Compound 198, 3-(2,4-dioxotetrahydropyrimidin-1(2H)-yl)-4-methoxy-N-(((1r,4r)-4-((4-(4-((9-((1s,3s)-3-(2-phenylacetamido)cyclobutyl)-9H-purin-6-yl)amino)phenyl)piperazin-1-yl)methyl)cyclohexyl)methyl)benzamide]
